Data from PMC6010122 (Journal of Enzyme Inhibition and Medicinal Chemistry, 2017).
Where two headings read alike, the source gives them in different places. Blank lines part the entries; values can stand above or below the molecule they belong to.

Experiments:
Ba/F3^WT cells = experiment: Cellular antiproliferation assay (CCK-8), Ba/F3 expressing Bcr-Abl^WT; assay type: cell-based, murine; settings: Mus musculus, read-out: Antiproliferation IC50, Ba/F3^WT
Ba/F3^T315I cells = assay type: cell-based, murine; settings: Mus musculus, read-out: Antiproliferation IC50, Ba/F3^T315I
K562 cells = experiment: Cellular antiproliferation assay (CCK-8), K562; assay type: cell-based; settings: Homo sapiens, read-out: Antiproliferation IC50, K562
K562 xenograft [1] = settings: mouse, in vivo, po, 10 mg/kg/day
Bcr-Abl^WT = Bcr-Abl^WT (Homo sapiens, UniProt P00519); assay type: biochemical
[2] = tested on: HFL-1 (human embryonic lung fibroblasts); set-up: method as in PMID 26940138; settings: human embryonic lung fibroblasts ref 26; read-out: Antiproliferative IC50, HFL-1 non-cancer cells; cited from earlier work
K562R (Q252H) cells = experiment: Cellular antiproliferation assay (CCK-8), imatinib-resistant K562R (Q252H); assay type: cell-based; settings: Homo sapiens, K-562R, read-out: Antiproliferation IC50, K562R (Q252H)
[3] = tested on: activation of Bcr-Abl, Crkl and STAT5 in K562 CML cells; experiment: Western blot of Bcr-Abl signaling in K562 cells; assay type: cell-based, human; settings: 4.0 h treatment
Method: The Western blot analysis was carried out by following the protocol described previously. Briefly, after the indicated treatment, cell lysates were collected, dissolving cells in 1× SDS sample lysis buffer. After being sonicated and boiled, the supernatant of the cell lysate was used for Western blot analysis. Cell lysates were loaded to 8–12% SDS-PAGE and separated by electrophoresis. Separated proteins were then electrically transferred to a PVDF film. After being blocked with 1× TBS containing 0.1% Tween-20, and 5% nonfat milk, the film was incubated with corresponding primary antibody followed by HRP-conjugated secondary antibody. The protein lanes were visualized using ECL Western Blotting Detection Kit (GE Healthcare, Piscataway, NJ).
Figure 3. […] Cells were treated with GZD856 at the indicated concentrations for 4.0 h, and whole cell lysates were then subjected to Western blot analyses. The results represent three independent experiments.

K562 xenograft [4] = experiment: Subcutaneous K562 xenograft model of human CML
U937 cells = experiment: Cellular antiproliferation assay (CCK-8), U937; assay type: cell-based; settings: Homo sapiens, read-out: Antiproliferation IC50, U937
MOLT-4 cells = experiment: Cellular antiproliferation assay (CCK-8), MOLT-4; assay type: cell-based; settings: Homo sapiens, read-out: Antiproliferation IC50, MOLT-4

Bcr-Abl^WT, sequence (P00519 27-1130): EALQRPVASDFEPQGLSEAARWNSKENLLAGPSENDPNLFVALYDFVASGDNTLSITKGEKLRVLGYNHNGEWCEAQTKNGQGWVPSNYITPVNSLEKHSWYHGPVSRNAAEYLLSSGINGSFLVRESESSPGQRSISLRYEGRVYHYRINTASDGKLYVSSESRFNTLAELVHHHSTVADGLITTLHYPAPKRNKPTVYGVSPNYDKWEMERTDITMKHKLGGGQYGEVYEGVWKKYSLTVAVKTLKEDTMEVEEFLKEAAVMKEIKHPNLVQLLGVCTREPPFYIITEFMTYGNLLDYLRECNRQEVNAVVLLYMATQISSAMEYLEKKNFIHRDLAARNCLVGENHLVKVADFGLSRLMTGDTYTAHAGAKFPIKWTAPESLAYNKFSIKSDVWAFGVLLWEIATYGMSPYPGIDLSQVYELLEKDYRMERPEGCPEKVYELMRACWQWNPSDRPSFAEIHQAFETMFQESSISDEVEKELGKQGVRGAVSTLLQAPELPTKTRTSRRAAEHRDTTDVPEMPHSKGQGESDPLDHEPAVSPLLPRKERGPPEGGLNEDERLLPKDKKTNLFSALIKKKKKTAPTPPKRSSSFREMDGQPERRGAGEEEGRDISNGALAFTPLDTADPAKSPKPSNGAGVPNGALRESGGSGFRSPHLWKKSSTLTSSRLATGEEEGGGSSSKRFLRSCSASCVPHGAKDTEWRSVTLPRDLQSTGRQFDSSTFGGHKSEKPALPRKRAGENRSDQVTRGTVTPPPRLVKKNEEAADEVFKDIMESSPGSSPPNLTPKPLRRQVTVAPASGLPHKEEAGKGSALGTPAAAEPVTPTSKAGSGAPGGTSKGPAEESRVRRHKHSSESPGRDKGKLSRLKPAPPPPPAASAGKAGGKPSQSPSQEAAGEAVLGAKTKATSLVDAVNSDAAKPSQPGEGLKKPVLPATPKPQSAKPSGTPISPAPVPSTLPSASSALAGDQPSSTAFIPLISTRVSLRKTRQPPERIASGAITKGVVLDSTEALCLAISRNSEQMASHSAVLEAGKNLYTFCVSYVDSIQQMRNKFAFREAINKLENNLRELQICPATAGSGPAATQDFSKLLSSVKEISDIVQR

Structure (SMILES): Cc1ccc(C(=O)Nc2ccc(CN3CCN(C)CC3)c(C(F)(F)F)c2)cc1C#Cc1cnc2ccnn2c1 [GZD856, 4-Methyl-N-(4-((4-methylpiperazin-1-yl)methyl)-3-(trifluoromethyl)phenyl)-3-(pyrazolo[1,5-a]pyrimidin-6-ylethynyl)benzamide]
- IC50 (Ba/F3^WT cells; BaF3, CCK-8, 72 h): 0.64 nM
- IC50 (Ba/F3^T315I cells; BaF3, CCK-8, 72 h): 10.8 nM
- IC50 (K562 cells; K562, CCK-8, 72 h): 2.2 nM
- Tolerability during treatment (K562 xenograft [1]): well tolerated with no mortality
- IC50 (Bcr-Abl^WT): 19.9 nM
- IC50 [2]: 6780 nM
- IC50 (K562R (Q252H) cells; CCK-8, 72 h): 67 nM
- Suppression of activation of Bcr-Abl and downstream Crkl and STAT5 [3]: efficiently suppressed the activation
- Body loss relative to vehicle-matched controls (K562 xenograft [4]; K562 xenograft mice, oral 10 mg/kg/day, during the treatment): < 5%
- Tumor recurrence after cessation of treatment (K562 xenograft [4]; K562 xenograft, 10 mg/kg/day, 16 days of dosing, following 7 days): no sign of tumor recurrence
- Antitumor effect on tumor (K562 xenograft [4]; K562 xenograft, oral 10 mg/kg/day, after 8 days of treatment): almost completely eradicated the tumor

Structure (SMILES): Cc1ccc(NC(=O)c2ccc(CN3CCN(C)CC3)cc2)cc1Nc1nccc(-c2cccnc2)n1 [Imatinib, imatinib]
- Antitumor effect on tumor (K562 xenograft [4]; K562 xenograft, oral 50 mg/kg/day): only induced tumor stasis

- IC50 (Ba/F3^WT cells; BaF3, 72 h): 22 nM
- IC50 (Ba/F3^T315I cells; BaF3, 72 h): 1460 nM
- IC50 (U937 cells; U-937, 72 h): 9520 nM
- IC50 (K562 cells; K562, 72 h): 6.5 nM
- IC50 (K562R (Q252H) cells; 72 h): 350 nM
- IC50 (MOLT-4 cells; MOLT-4, 72 h): 20400 nM
Structure (SMILES): Cc1cn(-c2cc(NC(=O)c3ccc(C)c(Nc4nccc(-c5cccnc5)n4)c3)cc(C(F)(F)F)c2)cn1 [Nilotinib]

- IC50 (U937 cells; U-937, 72 h): 1 nM
- IC50 (K562 cells; K562, 72 h): 0.5 nM
- IC50 (MOLT-4 cells; MOLT-4, 72 h): 7.8 nM
Structure (SMILES): Cc1ccc(C(=O)Nc2ccc(CN3CCN(C)CC3)c(C(F)(F)F)c2)cc1C#Cc1cnc2cccnn12 [Ponatinib, 3-[2-(imidazo[1,2-b]pyridazin-3-yl)ethynyl]-4-methyl-N-{4-[(4-methyl-piperazin-1-yl)methyl]-3-(trifluoromethyl)phenyl}benzamide]

- IC50 (U937 cells; U-937, CCK-8, 72 h, negative for Bcr-Abl expression): 2.3 nM
- IC50 (K562 cells; K562, CCK-8, 72 h): 5.1 nM
- IC50 (K562R (Q252H) cells; CCK-8, 72 h): 7 nM
- IC50 (MOLT-4 cells; MOLT-4, CCK-8, 72 h, negative for Bcr-Abl expression): 2.7 nM
Structure (SMILES): CC(=O)O[C@H]1C(=O)[C@@]2(C)[C@H]([C@H](OC(=O)c3ccccc3)[C@]3(O)C[C@H](OC(=O)[C@H](O)[C@@H](NC(=O)c4ccccc4)c4ccccc4)C(C)=C1C3(C)C)[C@]1(OC(C)=O)CO[C@@H]1C[C@@H]2O [Taxol]
